{"source": "patent US6057315A", "about": "“Antibacterial agents” (Warner-Lambertt Company, priority 1999, dated 2000)", "experiment_in_all_cases": "Antibacterial MIC, standard microtitration", "assay_type_in_all_cases": "cell-based", "key": {"B. subtilis RB1": {"test_system": "B. subtilis RB1", "details": "Bacillus subtilis, Gram positive, read-out: Minimum Inhibitory Concentrations", "description": "(§1) The compounds of the present invention were tested against an assortment of gram positive and gram negative organisms using standard microtitration techniques (Cohen, et. al. Antimicrobial Agents Chemother. 1985, 28, 766; Heifetz, et. al. Antimicrobial Agents Chemother. 1974, 6, 124) and the results are given in Table 1."}, "E. Coli MC4100": {"test_system": "E. Coli MC4100", "details": "Escherichia coli, Gram negative, read-out: Minimum Inhibitory Concentrations", "description": "as §1"}, "E. coli B90": {"test_system": "E. coli B90", "details": "Escherichia coli, Gram negative, read-out: Minimum Inhibitory Concentrations", "description": "as §1"}, "E. coli Tol C": {"test_system": "E. coli Tol C", "details": "Escherichia coli, read-out: Minimum Inhibitory Concentrations", "description": "as §1"}, "S. aureus 29213": {"test_system": "S. aureus 29213", "details": "Staphylococcus aureus, Gram positive, read-out: Minimum Inhibitory Concentrations", "description": "as §1"}, "S. pyogenes C203": {"test_system": "S. pyogenes C203", "details": "Streptococcus pyogenes, Gram positive, read-out: Minimum Inhibitory Concentrations", "description": "as §1"}}, "data": [{"compound": "CCCc1c(O)cc2oc3cccn3c(=O)c2c1O", "note": "[Example 6, 6,8-Dihydroxy-7-propyl-9H-pyrrolo[2,1-b][1,3]benzoxazin-9-one]", "values": [{"measurement": "MIC", "setting": "B. subtilis RB1", "result": 4, "unit": "µg/mL"}, {"measurement": "MIC", "setting": "E. Coli MC4100", "result": "> 64", "unit": "µg/mL"}, {"measurement": "MIC", "setting": "E. coli B90", "result": 4, "unit": "µg/mL"}, {"measurement": "MIC", "setting": "E. coli Tol C", "result": 2, "unit": "µg/mL"}, {"measurement": "MIC", "setting": "S. aureus 29213", "result": 2, "unit": "µg/mL"}, {"measurement": "MIC", "setting": "S. pyogenes C203", "result": 4, "unit": "µg/mL"}]}, {"compound": "CCCc1c(O)cc2oc3cc(Cl)c(C=O)n3c(=O)c2c1O", "note": "[Example 9, 2-Chloro-6,8-dihydroxy-9-oxo-7-propyl-9H-pyrrolo[2,1-b][1,3]benzoxazine-1-carboxaldehyde]", "values": [{"measurement": "MIC", "setting": "B. subtilis RB1", "result": 1, "unit": "µg/mL"}, {"measurement": "MIC", "setting": "E. Coli MC4100", "result": "> 64", "unit": "µg/mL"}, {"measurement": "MIC", "setting": "E. coli B90", "result": 4, "unit": "µg/mL"}, {"measurement": "MIC", "setting": "E. coli Tol C", "result": 2, "unit": "µg/mL"}, {"measurement": "MIC", "setting": "S. aureus 29213", "result": 4, "unit": "µg/mL"}, {"measurement": "MIC", "setting": "S. pyogenes C203", "result": 4, "unit": "µg/mL"}]}, {"compound": "CCCc1c(O)cc2oc3cc(Cl)c(C=NO)n3c(=O)c2c1O", "note": "[Example 10, 2-Chloro-6,8-dihydroxy-9-oxo-7-propyl-9H-pyrrolo[2,1-b][1,3]benzoxazine-1-carboxaldehyde, oxime]", "values": [{"measurement": "MIC", "setting": "B. subtilis RB1", "result": 32, "unit": "µg/mL"}, {"measurement": "MIC", "setting": "E. Coli MC4100", "result": "> 64", "unit": "µg/mL"}, {"measurement": "MIC", "setting": "E. coli B90", "result": "> 64", "unit": "µg/mL"}, {"measurement": "MIC", "setting": "E. coli Tol C", "result": 8, "unit": "µg/mL"}, {"measurement": "MIC", "setting": "S. aureus 29213", "result": 32, "unit": "µg/mL"}, {"measurement": "MIC", "setting": "S. pyogenes C203", "result": 16, "unit": "µg/mL"}]}, {"compound": "CCCc1c(OC(C)=O)cc2oc3cc(Cl)cn3c(=O)c2c1OC(C)=O", "note": "[Example 13, 6,8-Bis(acetyloxy)-2-chloro-7-propyl-9H-pyrrolo [2,1-b][1,3]benzoxazin-9-one]", "values": [{"measurement": "MIC", "setting": "B. subtilis RB1", "result": 8, "unit": "µg/mL"}, {"measurement": "MIC", "setting": "E. Coli MC4100", "result": "> 64", "unit": "µg/mL"}, {"measurement": "MIC", "setting": "E. coli B90", "result": 64, "unit": "µg/mL"}, {"measurement": "MIC", "setting": "E. coli Tol C", "result": 8, "unit": "µg/mL"}, {"measurement": "MIC", "setting": "S. aureus 29213", "result": 4, "unit": "µg/mL"}, {"measurement": "MIC", "setting": "S. pyogenes C203", "result": 4, "unit": "µg/mL"}]}]}
